Experimental data from US8815210B2, “Diagnostic composition comprising plasma cations having superior safety profile” (GE Healthcare AS, priority 2009, dated 2014).
Entries after “also recorded” stand apart in the source; their conditions may differ. Where two headings read alike, the source gives them in different places.

What was measured:
normal pigs = experiment: Haemodynamic effects after LAD injection in normal pigs without balloon occlusion (Example 2b); assay type: in vivo, pig; details: 25 ml (0.4 ml/sec) into LAD, 9 injections in 3 pigs
Text: FIG. 5 depicts the effect of Compound I (with and without added Ca) and Visipaque on LVSP 45 to 70 seconds from the start of injection to the LAD of normal pigs normalised to Ringer Lacate (LR) injection.
The haemodynamic effects of compositions of Compound I with and without added CaCl2 were compared to Visipaque and Iopamidol following selective administration to the LAD in normal pigs without balloon occlusion. The effects of each contrast media were normalised to any effects seen with an equivalent injection of Ringer Lactate solution, which acted as a volume and electrolyte—“ratio” control. There were a total of 12 pigs in this study, and each pig received a single CM injected 3 times at volumes of 10 ml (4 ml/sec), 20 ml (1 ml/sec) and 25 ml (0.4 ml/sec) (total of 9 CM injections in each pig). Each CM was either preceded or followed by a control injection of Ringer Lactate, and the order of each injection (volume) was randomised in each pig.

[1] = Partition coefficient between octanol and water; assay type: physicochemical; details: n-octanol/water
Protocol: As a measure of the hydrophilicity of Compound I, the partition coefficient between octanol and water was determined. Water (5 ml) containing the test substance (0.3 mg/ml) was shaken with 15 ml n-octanol until equilibrium had been obtained. The aqueous phase was separated by centrifugation and analyzed by HPLC (HP1100 equipped with a Discovery C18 column, 100×2.1 mm) using UV detection at 244 nm and a flow of 0.3 ml/min. Isocratic HPLC conditions were used, 8% acetonitrile in water (v/v). The octanol phase (12.5 ml) was extracted with water (0.75 ml) until equilibrium had been obtained and the phases were separated by centrifugation. The aqueous phase was analyzed by HPLC using the conditions detailed above. Both octanol and water were pre-saturated with water and octanol, respectively, before the partition coefficient experiments. […] As a comparison, the corresponding logP of iodixanol was determined to −4.02. The reported literature value is −4.05. The increased hydrophilicity of Compound I compared to iodixanol is confirmed by its HPLC behavior.

[2] = tested on: CD25^+-depleted peripheral blood mononuclear cells; experiment: In vitro T cell proliferation model; assay type: cell-based; details: 2 and 5 mg I/mL
Protocol: Generally, iodinated contrast media may cause late hypersensitivity reactions in susceptible patients from 1 hour to several days after exposure. These reactions are mainly non-serious skin eruptions such as macular, maculopapular and urticaria-like eruptions. Contrast media-induced delayed adverse reactions (DARs) such as skin eruptions appear to be caused by contrast media-reactive T cells that, upon recognizing the contrast media, proliferate and subsequently orchestrate an inflammatory reaction in the skin. The applicant has evaluated an in vitro T cell proliferation model designed to predict the relative frequency with which contrast media, such as Compound I, will cause late skin reactions in patients post-intravascular administration. Two contrast media, iodixanol and iohexol, with known rates of delayed skin reactions, and the new contrast medium, Compound I, was screened (2 and 5 mg I/mL) for in vitro T cell proliferation in CD25^+-depleted peripheral blood mononuclear cells from 100 donors representing world population HLA-DR frequencies. Positive T cell responses were evaluated according to published protocols and stimulation index values (positive response≧1.9). In vitro toxicity was tested by measuring cell viability of the first 10 donor samples incubated with test contrast media (5 mg I/mL). The results were that all major HLA-DR allotypes were represented with a frequency equivalent to the world population. No contrast media tested appeared to have a meaningful effect on cell viability. […] For iodixanol and iohexol, T cell proliferation responses for most donors occurred on days 7 and 8; statistical significance favored a reduced proliferation response to Compound I on day 8. In conclusions the model successfully established the relative frequency with which contrast media caused in vitro T cell activation. The results correlated with reported frequency of late skin reactions with two marketed contrast media and identified a lower frequency for Compound I.

Sca:SD rats = details: rat, in vivo
Protocol: Young adult male Sca:SD rats (Scanbur, Sweden), weighing 200±20 g, were injected intravenously at a rate of 1.2 ml/min with either Compound I (340 mgI/mL, 286 mosmol/kg), iodixanol (321 mgI/mL, 284 mosmol/kg), osmotic control mannitol (283 mosmol/kg), or saline (290 mosmol/kg), administered as 2 separate doses 4 hours apart. For the interim kill animals (day 2 post-treatment), Compound I and iodixanol were dosed at 8, 10 and 12.8 gI/kg, corresponding to total dose volumes of 23.7, 29.7 and 38.0 ml/kg, and 25, 31.3 and 40 ml/kg, respectively, whereas for mannitol and saline, the dose volume was 40 ml/kg. For the 7 day terminal kill animals, there were 4 dose groups; Compound I and iodixanol (12.8 gI/kg), and saline and mannitol (40 mL/kg). In all cases, each group included 8 animals.
The following evaluations were made during the study; clinical signs, body weights and blood for haematology and clinical chemistry on days 0, 2 and 7, and gross observations, organ weight and histomorphological examination of tissues from the animals killed by excess intravenous thiopental injection on days 2 or 7. The day of dosing was defined as Day 0. Clinical biochemistry parameters (Na, K, Cl, PO4, Ca, AST, ALT, ALP, cholesterol, creatinine, CK, GGT, TG (triglyceride), total bilirubin, total protein, urea, albumin, LDH and GLDH were measured on a Beckman Synchron CX5 at 37° C. Haematology parameters (WBC, differential WBC, RBC, WBC/RBC ratio, Hgb, PLT, HCT, MCH, MCHC, MCV, MPV and RDW) were analyzed with an Abbott Cell-Dyn 3500 CS automated haematology analyzer. Kidneys from saline control and the 12.8 gI/kg Compound I and iodixanol groups were immerse fixed in 10% neutral buffered formalin, processed into paraffin wax, sectioned at a nominal thickness of 5 μm, stained with haematoxylin and eosin and examined by light microscopy.
The data were analysed by parametric one-way ANOVA, followed by Dunnett's post procedure test, using the 2 days and 7 days saline groups for comparison with the 2 days and 7 days iodixanol and Compound I groups. The statistical analysis was applied on day −1 (baseline), day 2 and day 7.

[3] = Osmolality, vapour pressure osmometer; assay type: physicochemical; details: 320 mgI/ml
Protocol: The osmolality of Compound I was determined at four different concentrations, 204, 254, 310 and 324 mgI/ml. The osmolality of Compound I at 320 mgI/ml is 136 mOsm/kg.
The osmolality of Compound I was determined at four different concentrations, 204, 254, 310 and 324 mgI/ml. A Vapro 5520 vapour pressure osmometer from Vapro Inc. was used.
The osmolality of Compound I at 320 mgI/ml is lower than that of iodixanol, 136 mOsm/kg vs 210 mOsm/kg at 320 mgI/ml.

[4] = tested on: human serum albumin (HSA); experiment: Binding to human serum albumin, equilibrium dialysis; assay type: in vitro ADME; details: 25 hours, citrated human plasma
Protocol: The binding of Compound I to human serum albumin (HSA) was determined using an equilibrium dialysis method. The binding of Compound I to human serum albumin was determined to be very low, 3.1±1.3%, confirming the negligible interaction of the substance with endogenous proteins.
The binding of Compound I to human serum albumin (HSA) was determined using an equilibrium dialysis method. A stock solution of Compound I (5.0 mg/ml in phosphate buffered saline (PBS)) was mixed with citrate:human plasma in a ratio of 1:9. Equilibration was carried out in a Diachem Dianorm Dialyser against an aqueous phosphate buffered saline using a Diachem 10.17 MW cutoff 10000 membrane and was carried out for 25 hours. Analysis of the solutions was performed using an ICP-AES instrument. In addition, spiked PBS solutions were also equilibrated against citrated human plasma solutions to ensure that the equilibrium had been obtained. The binding of Compound I to human serum albumin was determined to be very low, 3.1±1.3%, confirming the negligible interaction of the substance with endogenous proteins. As a reference, the binding of iodixanol to HSA was determined to 0.4±0.9%.

[5] = octanol/water; cited from earlier work

Compound | induction of ventricular fibrillation (VF) (normal pigs) | logP [1] | days on which T cell proliferation responses occurred for most donors [2] | Glomerulus: Bowman's Space Proteinaceous Material, Right Kidney (Sca:SD rats; male, Sca:SD, 2 day) | duration of clinical signs (Sca:SD rats; male, Sca:SD, iv) | onset of clinical signs after the first administration (Sca:SD rats; male, Sca:SD, iv) | Glomerulus: Bowman's Space Proteinaceous Material, Right Kidney (Sca:SD rats) | adverse clinical signs (Sca:SD rats; iv) | osmolality [3] | binding to human serum albumin (HSA) [4] | logP, reported literature value [5]
C[C@H](O)C(=O)Nc1c(I)c(C(=O)NC(CO)CO)c(I)c(C(=O)NC(CO)CO)c1I [Iopamidol, reference compound] | VF was observed in each case; also recorded: induced VF on every occasion |  |  |  |  |  |  |  |  |  | 
CC(=O)N(CC(O)CN(C(C)=O)c1c(I)c(C(=O)NCC(O)CO)c(I)c(C(=O)NCC(O)CO)c1I)c1c(I)c(C(=O)NCC(O)CO)c(I)c(C(=O)NCC(O)CO)c1I (stereo not drawn) [iodixanol, reference compound] |  | -4.02 | days 7 and 8 | P, P, P, 0 | 2 to 3 h | 10 to 20 min | P, P, P, P, | mild to moderate depression and uncoordinated movements and weakness/inactivity | 210 mOsm/kg | 0.4±0.9% | −4.05
CC(=O)N(CC(O)CO)c1c(I)c(C(=O)NCC(O)CO)c(I)c(C(=O)NCC(O)CO)c1I (stereo not drawn) [iohexol, reference compound] |  |  | days 7 and 8 |  |  |  |  |  |  |  | 
